Test results published in ChEMBL document CHEMBL3886209, “Benzimidazole-imidazole derivatives” (2016).

Tests used:
[1] = (§1) Transient Replicon Assay: In a transient set-up, a Huh-7 lunet hepatoma cell line was transiently transfected with an autonomously replicating RNA encoding a bi-cistronic expression construct. This construct comprises a firefly luciferase reporter gene preceding the NS3-NS5B subgenomic region of HCV (genotype 1a H77 or 1b Con1). Translation of the HCV subgenomic region is mediated by an internal ribosome entry site of encephalomyocarditis virus. The construct is furthermore flanked by 5' and 3' untranslated regions of HCV (genotype 1a H77 or 1b Con 1, respectively), which allow for replication of the RNA. In addition to the wild-type constructs, site-directed mutations were introduced into the transient HCV genotype 1b replicon in the gene encoding for the non-structural protein 5A (NS5A). More precisely, amino acid residues 28, 30, 31 and 93 in NS5A were independently altered. Cells were plated in 384 well plates in the presence of test and control compounds, which were added in various concentrations. Following an incubation of two days, replication of the HCV subgenomic replicon RNA was measured by assaying luciferase activity (using standard luciferase assay substrates and reagents and a Perkin Elmer ViewLux™ ultraHTS microplate imager). HCV subgenomic replicon containing cells in the control cultures have high luciferase expression in the absence of any inhibitor. The inhibitory activity of the compound was monitored, enabling a dose-response curve for each test compound.; assay type: cell-based
[2] = Stable Replicon Assay: The assay utilized the stably transfected cell line Huh-7 luc/neo (hereafter referred to as Huh-Luc). This cell line harbors an RNA encoding a bicistronic expression construct comprising the wild type NS3-NS5B regions of HCV type 1b translated from an Internal Ribosome Entry Site (IRES) from encephalomyocarditis virus (EMCV), preceded by a reporter portion (FfL-luciferase), and a selectable marker portion (neoR, neomycine phosphotransferase). The construct is flanked by 5' and 3' NTRs (non-translated regions) from HCV type 1b. Continued culture of the replicon cells in the presence of G418 (neoR) is dependent on the replication of the HCV RNA. The stably transfected replicon cells that replicate HCV RNA autonomously and to high levels, encoding inter alia luciferase, were used for screening the antiviral compounds. The replicon cells were plated in 384 well plates in the presence of the test and control compounds which were added in various concentrations. Following an incubation of three days, HCV replication was measured by assaying luciferase activity (using standard luciferase assay substrates and reagents and a Perkin Elmer ViewLux™ ultraHTS microplate imager). Replicon cells in the control cultures have high luciferase expression in the absence of any inhibitor. The inhibitory activity of the compound was monitored on the Huh-Luc cells, enabling a dose-response curve for each test compound.
Nonstructural protein 5A = Nonstructural protein 5A (Hepatitis C virus, UniProt Q5L478); experiment: as §1; assay type: cell-based

In the case of CC[C@H](C)[C@H](NC(=O)OC)C(=O)N1CCC[C@H]1c1nc2cc(-c3ccc4cc(-c5cnc([C@@H]6CCCN6C(=O)[C@@H](NC(=O)OC)[C@@H](C)OC)[nH]5)ccc4c3)ccc2[nH]1, the EC50 [1] is reported as 4 pM and the EC50 [2] is reported as 3 pM.
COC(=O)N[C@H](C(=O)N1CCC[C@H]1c1ncc(-c2ccc3cc(-c4ccc5nc([C@@H]6CCCN6C(=O)[C@@H](NC(=O)OC)[C@@H](C)OC)[nH]c5c4)ccc3c2)[nH]1)C(C)C gave an EC50 (Nonstructural protein 5A) of under 17 pM.
Compound CC[C@@H](C)[C@H](NC(=O)OC)C(=O)N1CCC[C@H]1c1ncc(-c2ccc3cc(-c4ccc5nc([C@@H]6CCCN6C(=O)[C@@H](NC(=O)OC)[C@H](C)CC)[nH]c5c4)ccc3c2)[nH]1 has an EC50 [1] of 2 pM and an EC50 [2] of 3 pM.
In the case of COC(=O)N[C@H](C(=O)N1CCC[C@H]1c1nc2ccc(-c3ccc4cc(-c5cnc([C@@H]6CCCN6C(=O)[C@@H](NC(=O)OC)[C@@H](C)OC)[nH]5)ccc4c3)cc2[nH]1)C(C)C, the EC50 [2] is reported as 6 pM.
Compound CC[C@H](C)[C@H](NC(=O)OC)C(=O)N1CCC[C@H]1c1nc2ccc(-c3ccc4cc(-c5cnc([C@@H]6CCCN6C(=O)[C@@H](NC(=O)OC)C(C)C)[nH]5)ccc4c3)cc2[nH]1 has an EC50 (Nonstructural protein 5A) of under 13 pM.
